Data on four compounds can be found in patent US12559529B2, “NPY2 receptor agonists” (Boehringer Ingelheim International GmbH, priority 2019, dated 2026).

The Ki is the equilibrium dissociation constant of an inhibitor or competing ligand from its target.

*1 amine or outer side, *2 acyl side, *3 side chain or, on linkers, in order; H or OH if unused. Where a SMILES comes first, the peptide text is derived from it. Side-chain parts run from the residue outwards. The star is where a group is joined. C18 diacid = O=C(O)CCCCCCCCCCCCCCCCC(=O)*; γGlu = O=C(O)[C@H](CCC(=O)[*:2])N[*:1]; Isovaleryl = CC(C)CC(=O)*; AEEA = NCCOCCOCC(=O)O

The subject of one test is normal NMRI mice. The test is described as follows: Effect on acute food intake in normal NMRI mice. The class given is in vivo. Particulars: male NMRI mice, 10 nmol/kg subcutaneously once. On the procedure: Male NMRI mice were obtained from Charles River (Charles River, Research Models & Services Germany GmbH) or from Jan Vier (Jan Vier Labs, France) at 5 weeks of age. […] Room temperature was controlled to 21° C.±1° C., with 60%+20% humidity.
Animals were transferred 5-7 days before the start of the study to a real-time food intake monitoring system, HM-2 system (MBRose, Denmark), to allow acclimatization to experimental conditions. As the animals were uniquely identified with microchips, each individual animal was identified by its microchip upon entry and exit from the food channel. Randomization of the mice for each study group (n=7-8) was based on body weight measured the day before the start of the study. A vehicle-treated (50 mM phosphate buffer pH7 with 5% Mannitol) group was included in each experiment. Six hours before the start of the night phase animals were fasted. One hour before the dark phase animals were dosed once subcutaneously (10 nmol/kg) with test peptide. […] The food intake of the treated groups was normalized (in %) to the average food intake of the group receiving vehicle (Table 7). Statistical significance was evaluated using One-way analysis of variance with Turkey's multiple comparison test. P<0.05 was considered statistically significant.

Test [1] deals with T1, Human Neuropeptide Y2 Receptor (Homo sapiens, UniProt P49146).
T1 construct: purchased CHEMICON HTS066M
T1 sequence (P49146 1-381): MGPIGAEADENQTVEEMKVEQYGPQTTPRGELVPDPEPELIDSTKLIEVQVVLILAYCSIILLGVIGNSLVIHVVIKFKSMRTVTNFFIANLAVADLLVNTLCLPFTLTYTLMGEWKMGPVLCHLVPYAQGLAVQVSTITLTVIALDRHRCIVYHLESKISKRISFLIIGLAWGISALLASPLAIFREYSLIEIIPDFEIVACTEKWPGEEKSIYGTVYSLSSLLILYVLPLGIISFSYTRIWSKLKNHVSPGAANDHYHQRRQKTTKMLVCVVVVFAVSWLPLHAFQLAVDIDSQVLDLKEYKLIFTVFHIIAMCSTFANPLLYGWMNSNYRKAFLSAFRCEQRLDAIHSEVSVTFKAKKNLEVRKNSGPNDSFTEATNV
Briefly: Radioligand binding competition assay (RLB). Particulars: Table 3; human 125I-PYY (1-36) 0.02 nM, Y2 receptor membranes; read-out: Ki. The gist of the method: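 IC50 values come from nonlinear regression of sigmoidal dose-response curves of filter-bound radioactivity. Peptides competed with radioligand at human Y2 receptor membranes (0.5 μg protein/well) for 2 h at room temperature in pH 7.4 HEPES buffer containing Mg2+, Ca2+ and 0.2% ovalbumin.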

Regarding `CC(C)CC(=O)N[C@@H](C)C(=O)N1CCC[C@H]1C(=O)N[C@@H](CCC(=O)O)C(=O)N[C@@H](CCCCNC(=O)COCCOCCNC(=O)COCCOCCNC(=O)CC[C@H](NC(=O)CCCCCCCCCCCCCCCCC(=O)O)C(=O)O)C(=O)N1CCC[C@H]1C(=O)N[C@@H](CCC(=O)O)C(=O)N[C@@H](CCC(=O)O)C(=O)N[C@@H](CC(=O)O)C(=O)N[C@@H](C)C(=O)N[C@@H](CO)C(=O)N1CCC[C@H]1C(=O)N[C@@H](CCC(=O)O)C(=O)N[C@@H](CCC(=O)O)C(=O)N[C@@H](CC(C)C)C(=O)N[C@@H](CCC(N)=O)C(=O)N[C@@H](CCC(N)=O)C(=O)N[C@@H](Cc1ccc(O)cc1)C(=O)N[C@@H](Cc1ccc(O)cc1)C(=O)N[C@H](C(=O)N[C@@H](CO)C(=O)N[C@@H](CC(C)C)C(=O)N[C@@H](CCCNC(=N)N)C(=O)N[C@@H](Cc1c[nH]cn1)C(=O)N[C@@H](Cc1ccc(O)cc1)C(=O)N[C@@H](Cc1ccc(O)cc1)C(=O)N[C@@H](CC(N)=O)C(=O)N[C@@H](Cc1c[nH]c2ccccc12)C(=O)N[C@@H](CC(C)C)C(=O)N[C@H](C(=O)N[C@@H](CCCNC(=N)N)C(=O)N[C@@H](CCC(N)=O)C(=O)N[C@@H](CCCNC(=N)N)C(=O)N[C@@H](Cc1ccc(O)cc1)C(N)=O)[C@@H](C)O)C(C)C` [Compound 58, N{alpha-4}-(3-methylbutanoyl)-N{epsilon-7}-[2-(2-{2-[2-(2-{2-[(4S)-4-carboxy-4-(17-carboxyheptadecanamido)butanamido]ethoxy}ethoxy)acetamido]ethoxy}ethoxy)acetamido]-[4A,7K,9E,18Q,19Q,22V,28Y,30W,31L]hPYY (4-36)], the “Acute Food Intake 24 h [% vehicle]” value with normal NMRI mice came out at 44 % vehicle. As to `CC(C)CC(=O)N[C@@H](C)C(=O)N1CCC[C@H]1C(=O)N[C@@H](CCC(=O)O)C(=O)N[C@@H](CCCCNC(=O)COCCOCCNC(=O)COCCOCCNC(=O)CC[C@H](NC(=O)CCCCCCCCCCCCCCCCC(=O)O)C(=O)O)C(=O)N1CCC[C@H]1C(=O)N[C@@H](CCC(=O)O)C(=O)N[C@@H](CCC(=O)O)C(=O)N[C@@H](CC(=O)O)C(=O)N[C@@H](C)C(=O)N[C@@H](CO)C(=O)N1CCC[C@H]1C(=O)N[C@@H](CCC(=O)O)C(=O)N[C@@H](CCC(=O)O)C(=O)N[C@@H](CC(C)C)C(=O)N[C@@H](CCC(N)=O)C(=O)N[C@@H](CCC(N)=O)C(=O)N[C@@H](Cc1ccc(O)cc1)C(=O)N[C@@H](CCC(=O)O)C(=O)N[C@H](C(=O)N[C@@H](CO)C(=O)N[C@@H](CC(C)C)C(=O)N[C@@H](CCCNC(=N)N)C(=O)N[C@@H](Cc1c[nH]cn1)C(=O)N[C@@H](Cc1ccc(O)cc1)C(=O)N[C@@H](Cc1ccc(O)cc1)C(=O)N[C@@H](CC(N)=O)C(=O)N[C@@H](Cc1c[nH]c2ccccc12)C(=O)N[C@@H](CC(C)C)C(=O)N[C@H](C(=O)N[C@@H](CCCNC(=N)N)C(=O)N[C@@H](CCC(N)=O)C(=O)N[C@@H](CCCNC(=N)N)C(=O)N[C@@H](Cc1ccc(O)cc1)C(N)=O)[C@@H](C)O)C(C)C` [Compound 167, N{alpha-4}-(3-methylbutanoyl)-N{epsilon-7}-[2-(2-{2-[2-(2-{2-[(4S)-4-carboxy-4-(17-carboxyheptadecanamido)butanamido]ethoxy}ethoxy)acetamido]ethoxy}ethoxy)acetamido]-[4A,7K,9E,18Q,19Q,21E,22V,28Y,30W,31L]hPYY (4-36)] (Isovaleryl-APEK([AEEA-AEEA-γGlu-C18 diacid])PEEDASPEELQQYEVSLRHYYNWLTRQRY-NH2), in the test on normal NMRI mice, the “Acute Food Intake 24 h [% vehicle]” value worked out at 73 % vehicle. Take `CC(C)CC(=O)N[C@@H](C)C(=O)N1CCC[C@H]1C(=O)N[C@@H](CCC(=O)O)C(=O)N[C@@H](CCCCNC(=O)COCCOCCNC(=O)COCCOCCNC(=O)CC[C@H](NC(=O)CCCCCCCCCCCCCCCCC(=O)O)C(=O)O)C(=O)N1CCC[C@H]1C(=O)N[C@@H](CCC(=O)O)C(=O)N[C@@H](CCC(=O)O)C(=O)N[C@@H](CC(=O)O)C(=O)N[C@@H](C)C(=O)N[C@@H](C)C(=O)N1CCC[C@H]1C(=O)N[C@@H](C)C(=O)N[C@@H](CCC(=O)O)C(=O)N[C@@H](CC(C)C)C(=O)N[C@@H](CCC(N)=O)C(=O)N[C@@H](CCCNC(=N)N)C(=O)N[C@@H](Cc1ccc(O)cc1)C(=O)N[C@@H](Cc1ccc(O)cc1)C(=O)N[C@H](C(=O)N[C@@H](CO)C(=O)N[C@@H](CC(C)C)C(=O)N[C@@H](CCCNC(=N)N)C(=O)N[C@@H](Cc1c[nH]cn1)C(=O)N[C@@H](Cc1ccc(O)cc1)C(=O)N[C@@H](Cc1ccc(O)cc1)C(=O)N[C@@H](CC(N)=O)C(=O)N[C@@H](Cc1c[nH]c2ccccc12)C(=O)N[C@@H](CC(C)C)C(=O)N[C@H](C(=O)N[C@@H](CCCNC(=N)N)C(=O)N[C@@H](CCC(N)=O)C(=O)N[C@@H](CCCNC(=N)N)C(=O)N[C@@H](Cc1ccc(O)cc1)C(N)=O)[C@@H](C)O)C(C)C` [Compound 192, N{alpha-4}-(3-methylbutanoyl)-N{epsilon-7}-[2-(2-{2-[2-(2-{2-[(4S)-4-carboxy-4-(17-carboxyheptadecanamido)butanamido]ethoxy}ethoxy)acetamido]ethoxy}ethoxy)acetamido]-[4A,7K,9E,13A,15A,18Q,22V,28Y,30W,31L]hPYY (4-36)]: in test [1], the Ki was found to be 1.65 nM. For `CC(C)CC(=O)N[C@@H](C)C(=O)N1CCC[C@H]1C(=O)N[C@@H](CCC(=O)O)C(=O)N[C@@H](CCCCNC(=O)COCCOCCNC(=O)COCCOCCNC(=O)CC[C@H](NC(=O)CCCCCCCCCCCCCCCCC(=O)O)C(=O)O)C(=O)N1CCC[C@H]1C(=O)N[C@@H](CCC(=O)O)C(=O)N[C@@H](CCC(=O)O)C(=O)N[C@@H](CC(=O)O)C(=O)NCC(=O)N[C@@H](CO)C(=O)N1CCC[C@H]1C(=O)N[C@@H](CCC(=O)O)C(=O)N[C@@H](CCC(=O)O)C(=O)N[C@@H](CC(C)C)C(=O)N[C@@H](CCC(N)=O)C(=O)N[C@@H](CCCNC(=N)N)C(=O)N[C@@H](Cc1ccc(O)cc1)C(=O)N[C@@H](Cc1ccc(O)cc1)C(=O)N[C@H](C(=O)N[C@@H](CCC(=O)O)C(=O)N[C@@H](CC(C)C)C(=O)N[C@@H](CCCNC(=N)N)C(=O)N[C@@H](Cc1c[nH]cn1)C(=O)N[C@@H](Cc1ccc(O)cc1)C(=O)N[C@@H](Cc1ccc(O)cc1)C(=O)N[C@@H](CC(N)=O)C(=O)N[C@@H](Cc1c[nH]c2ccccc12)C(=O)N[C@@H](CC(C)C)C(=O)N[C@H](C(=O)N[C@@H](CCCNC(=N)N)C(=O)N[C@@H](CCC(N)=O)C(=O)N[C@@H](CCCNC(=N)N)C(=O)N[C@@H](Cc1ccc(O)cc1)C(N)=O)[C@@H](C)O)C(C)C` [Compound 182, N{alpha-4}-(3-methylbutanoyl)-N{epsilon-7}-[2-(2-{2-[2-(2-{2-[(4S)-4-carboxy-4-(17-carboxyheptadecanamido)butanamido]ethoxy}ethoxy)acetamido]ethoxy}ethoxy)acetamido]-[4A,7K,9E,12G,18Q,22V,23E,28Y,30W,31L]hPYY (4-36)], the Ki in test [1] was 3.45 nM.
